Measurements reported in patent US4680290A, “Steroids for the treatment of hypercholesterolemia” (Hoffmann-La Roche Inc., priority 1983, dated 1987).

Tests used:
[1] = acute toxicity, single oral administration to mice; settings: mouse, in vivo; single oral administration (p.o.) to mice
Excerpt: (§1) The results which have been obtained with some representative products in accordance with the invention are reproduced in the Table hereinafter. There are given for each of the compounds indicated therein the dosage administered (in μmol/kg p.o.) as well as in each case the cholesterol resorption (CHORES) determined in percentages of the cholesterol resorption in the pre-period. Moreover, the Table contains data concerning the acute toxicity of the compounds investigated (LD50 in mg/kg in the case of single oral administration to mice).

[2] = test system: intestinal resorption of cholesterol; assay: inhibition of the intestinal resorption of cholesterol in squirrel monkeys (CHORES); format: in vivo; settings: 100 μmol/kg p.o., [26-^14 C]-cholesterol in feed, faeces collected 2.5 days, % of control values determined prior to medication
Excerpt: Squirrel monkeys are orally administered the substances to be investigated together with a feed containing a protein, starch, triolein and [26-^14 C]-cholesterol. Thereupon, the faeces is collected for 2.5 days. The difference between the administered and the excreted radioactive cholesterol determined in the faeces is taken as the measurement of resorbed cholesterol. The cholesterol resorption (CHORES) is expressed in percentages of the control values determined prior to the medication.
as §1

## CC[C@H](CC[C@@H](C)[C@H]1CC[C@H]2[C@@H]3CC[C@H]4C[C@@H](OP(=O)([O-])OCC[N+](C)(C)C)CC[C@]4(C)[C@H]3CC[C@]12C)C(C)C [3β-Stigmastanyloxy-phosphorylcholine, 3β-stigmastanyloxy-phosphorylcholine]
[1]
  LD50: 4000 mg/kg
[2]
  CHORES in % of the pre-period (cholesterol resorption): 36%

## CC(C)CCC[C@@H](C)[C@H]1CC[C@H]2[C@@H]3CC[C@H]4C[C@@H](OP(=O)([O-])OCC[N+](C)(C)C)CC[C@]4(C)[C@H]3CC[C@]12C [3β-Cholestanyloxy-phosphorylcholine]
[1]
  LD50: 5000 mg/kg
[2]
  CHORES in % of the pre-period (cholesterol resorption): 26%

## CC[C@H](CC[C@@H](C)[C@H]1CC[C@H]2[C@@H]3CC=C4C[C@@H](OP(=O)([O-])OCC[N+](C)(C)C)CC[C@]4(C)[C@H]3CC[C@]12C)C(C)C [Stigmast-5-en-3β-yloxy-phosphorylcholine]
[1]
  LD50: 5000 mg/kg
[2]
  CHORES in % of the pre-period (cholesterol resorption): 52%

## CC[C@H](/C=C/[C@@H](C)[C@H]1CC[C@H]2[C@@H]3CC=C4C[C@@H](OP(=O)([O-])OCC[N+](C)(C)C)CC[C@]4(C)[C@H]3CC[C@]12C)C(C)C [Stigmasta-5,22-dien-3β-yloxy-phosphorylcholine]
[1]
  LD50: 5000 mg/kg
[2]
  CHORES in % of the pre-period (cholesterol resorption): 33%
